Experimental data published in paper PMC6757289, “Design and Characterization of SGK3-PROTAC1, an Isoform Specific SGK3 Kinase PROTAC Degrader” (ACS Chemical Biology, 2019).

Columns and labels:
Format in all cases: cell-based
SGK1 = target: T1, SGK1 (Homo sapiens, UniProt O00141); test: SGK1 protein level in HEK293 cells, immunoblot; conditions: HEK293, 48 h
T1 sequence (O00141 1-431): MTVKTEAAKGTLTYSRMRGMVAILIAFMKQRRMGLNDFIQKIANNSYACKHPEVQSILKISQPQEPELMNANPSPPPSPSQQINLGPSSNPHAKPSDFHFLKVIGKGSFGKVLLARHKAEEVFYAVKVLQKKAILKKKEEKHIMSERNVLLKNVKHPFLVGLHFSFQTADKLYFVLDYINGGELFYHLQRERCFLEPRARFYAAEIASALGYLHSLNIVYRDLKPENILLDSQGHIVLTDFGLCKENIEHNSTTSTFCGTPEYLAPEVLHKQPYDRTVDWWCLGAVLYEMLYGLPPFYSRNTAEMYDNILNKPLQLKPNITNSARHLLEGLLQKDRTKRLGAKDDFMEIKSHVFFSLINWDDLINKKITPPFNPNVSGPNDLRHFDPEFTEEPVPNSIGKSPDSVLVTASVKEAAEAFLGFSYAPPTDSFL
Description: (§1) A medium length linker composed of three PEG units was used in the first instance (Figure 1B and C). […] After 48 h of PROTAC treatment, cell lysates were analyzed by immunoblot analysis, and protein expression under each condition was quantified relative to the DMSO-only control. […] DAT1 reduced SGK3 expression by 60% at 1 μM and 75% at 10 μM after 48 h (Figure 1D). […] As expected, inhibition of CUL2 neddylation by means of the inhibitor MLN4924 (3 μM) or proteasome inhibition (MG132, 50 μM) blocked DAT1-induced degradation of SGK3 (Figure S1C).
(§2) All cell treatments were carried out as described in figure legends, to a final DMSO concentration of 0.1% (v/v). Lysates were quantified. Immunoblotting was performed using standard procedures, described in brief below. Lysate concentration was quantified by Bradford Assay, and 10 μg of lysate was loaded in the LDS sample buffer for SDS-PAGE electrophoresis on Novex 4–12% Bis–Tris gels. Proteins were electrophoretically transferred onto nitrocellulose membranes (Amersham Protran 0.45 μm NC; GE Healthcare) at 80 V for 80 min on ice in transfer buffer. […] The signal was produced with near-infrared secondary antibodies and detected using a Licor Biosciences Odyssey System, and the signal was quantified in Image Studio Lite.

SGK2 = target: T2, SGK2 (Homo sapiens, UniProt Q9HBY8); test: SGK2 protein level in HEK293 cells, immunoblot; conditions: HEK293, 48 h
T2 construct: reduced endogenous SGK isoform or S6K1 expression when administered to HEK293 cells for 48 h; endogenous in cells; host or cells: HEK293
Description: as §1, §2

SGK3 = target: T3, SGK3 (Homo sapiens, UniProt Q96BR1); test: SGK3 degradation in CAMA-1 cells, immunoblot; conditions: for SGK3 expression: CAMA-1, 5 days 1 μM GDC0941 or AZD5363, 0.3 μM for 5 days or 8 h
T3 sequence (Q96BR1 1-496): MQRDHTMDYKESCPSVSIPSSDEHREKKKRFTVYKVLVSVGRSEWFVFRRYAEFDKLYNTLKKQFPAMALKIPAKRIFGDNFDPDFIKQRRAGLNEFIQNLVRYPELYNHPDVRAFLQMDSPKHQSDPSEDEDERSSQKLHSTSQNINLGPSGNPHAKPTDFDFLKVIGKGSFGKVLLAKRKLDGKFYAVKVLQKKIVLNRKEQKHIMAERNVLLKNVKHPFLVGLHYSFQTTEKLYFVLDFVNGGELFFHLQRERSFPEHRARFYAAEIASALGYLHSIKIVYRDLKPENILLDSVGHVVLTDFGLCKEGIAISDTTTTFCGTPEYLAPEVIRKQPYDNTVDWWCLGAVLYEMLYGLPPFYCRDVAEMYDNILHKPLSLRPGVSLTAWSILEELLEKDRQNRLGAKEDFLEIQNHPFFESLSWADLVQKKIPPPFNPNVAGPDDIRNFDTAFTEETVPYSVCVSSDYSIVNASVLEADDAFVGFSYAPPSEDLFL
Description: Figure 3 Characterization of cellular activities of SGK3-PROTAC1 and cisSGK3-PROTAC1. (A) HEK293 cells were first treated for 8 h with 0.03–3 μM SGK3-PROTAC1 and cisSGK3-PROTAC1. One hour before lysis, cells were treated with 3 μM AZD5363. Lysates were subjected to immunoblot analysis with the indicated antibodies. […] Lysates were subjected to immunoblot analysis with the indicated antibodies. (C) HEK293 cells were treated for up to 48 h with SGK3-PROTAC1 (0.3 μM), and lysates were analyzed by immunoblot analysis using the indicated antibodies. (D) HEK293 cells were treated for 24 h with SGK3-PROTAC1. Cells were washed three times with DMEM to wash out the compound, and recovery of SGK3 expression protein was analyzed by immunoblot analysis. (E–G) As in A except that CAMA-1 (E), ZR-75-1 (F), and JIMT-1 (G) cells were employed rather than HEK293 cells.
Figure 5 SGK3-PROTAC1-mediated degradation of SGK3 inhibits Akt-independent activation of mTORC1 in cancer cell lines treated with Akt or PI3K inhibitors. CAMA-1 (A, C) or ZR-75-1 (B, D) were treated for 5 days with 1 μM GDC0941 (A, B) or 1 μM AZD5363 (C, D). Cells were treated with the compounds indicated for either 5 days or 8 h before lysis; cells were treated with the compounds indicated. Cell lysates were subject to immunoblot analysis with the indicated antibodies.
All cell treatments were carried out as described in figure legends, to a final DMSO concentration of 0.1% (v/v). Lysates were quantified. Immunoblotting was performed using standard procedures, described in brief below. Lysate concentration was quantified by Bradford Assay, and 10 μg of lysate was loaded in the LDS sample buffer for SDS-PAGE electrophoresis on Novex 4–12% Bis–Tris gels. Proteins were electrophoretically transferred onto nitrocellulose membranes (Amersham Protran 0.45 μm NC; GE Healthcare) at 80 V for 80 min on ice in transfer buffer. Transferred membranes were blocked with 5% (w/v) nonfat dry milk dissolved in TBS-T [20 mM Tris/HCl, pH 7.5, 150 mM NaCl, and 0.1% (v/v) Tween 20] at RT for 30 min, before incubation with the primary antibody overnight at 4 °C. The signal was produced with near-infrared secondary antibodies and detected using a Licor Biosciences Odyssey System, and the signal was quantified in Image Studio Lite.

T2 sequence (Q9HBY8 whole entry, canonical isoform): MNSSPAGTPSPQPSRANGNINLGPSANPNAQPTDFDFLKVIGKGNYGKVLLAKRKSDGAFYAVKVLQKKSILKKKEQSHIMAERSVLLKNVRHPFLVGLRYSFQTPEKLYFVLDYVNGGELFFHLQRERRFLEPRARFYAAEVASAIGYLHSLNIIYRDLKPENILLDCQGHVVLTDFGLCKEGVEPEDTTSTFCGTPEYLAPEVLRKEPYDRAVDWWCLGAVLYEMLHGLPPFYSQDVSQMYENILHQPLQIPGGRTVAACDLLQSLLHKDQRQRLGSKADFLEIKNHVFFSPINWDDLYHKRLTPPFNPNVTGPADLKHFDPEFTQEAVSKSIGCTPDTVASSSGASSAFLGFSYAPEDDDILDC

SGK1 level (SGK1; up to 10 μM) | SGK2 level (SGK2; up to 10 μM) | Compound | SGK1 level (SGK1; 0.1 μM) | SGK2 level (SGK2; 0.1 μM) | concentration inducing degradation of SGK3 (SGK3; CAMA-1, 8 h) | SGK3 expression (SGK3) | degradation of SGK3 (SGK3; CAMA-1, 8 h, 0.03–3 μM)
not significantly impacted | not significantly impacted | Cc1ccc(F)c(S(=O)(=O)Nc2ccc(-c3nc(OC[C@H]4CN(CCOCCOCCOCC(=O)N[C@H](C(=O)N5C[C@H](O)C[C@H]5C(=O)NCc5ccc(-c6scnc6C)cc5)C(C)(C)C)CCO4)c4cn[nH]c4n3)cc2)c1 [DAT1] |  |  |  |  | 
 |  | Cc1ccc(F)c(S(=O)(=O)Nc2ccc(-c3nc(OC[C@H]4CN(CCCCCCOCCOCCOCC(=O)N[C@H](C(=O)N5C[C@H](O)C[C@H]5C(=O)NCc5ccc(-c6scnc6C)cc5)C(C)(C)C)CCO4)c4cn[nH]c4n3)cc2)c1 [SGK3-PROTAC1] | without effecting | without effecting | > 0.1 µM | substantially reduced | 
 |  | Cc1ccc(F)c(S(=O)(=O)Nc2ccc(-c3nc(OC[C@H]4CN(CCCCCCOCCOCCOCC(=O)N[C@H](C(=O)N5C[C@@H](O)C[C@H]5C(=O)NCc5ccc(-c6scnc6C)cc5)C(C)(C)C)CCO4)c4cn[nH]c4n3)cc2)c1 [cisSGK3-PROTAC1] |  |  |  | no significant effect | no impact
